This passage reports IC50 results from patent US12503438B2, “Compounds for the treatment of kinase-dependent disorders” (Exelixis, Inc., priority 2019, dated 2025).

Molecules are shown by their SMILES. Some results are limits rather than exact numbers.

Usually IC50 stands for the concentration that inhibits the measured activity by half. High values mean a need for much substance, low ones inhibition by little substance.

For this test, the target named is T1, AXL (Homo sapiens, UniProt P30530).
T1 construct: endogenous in cells; host or cells: A-172 glioblastoma cells (ATCC #CRL-1620)
T1 sequence (P30530 26-894): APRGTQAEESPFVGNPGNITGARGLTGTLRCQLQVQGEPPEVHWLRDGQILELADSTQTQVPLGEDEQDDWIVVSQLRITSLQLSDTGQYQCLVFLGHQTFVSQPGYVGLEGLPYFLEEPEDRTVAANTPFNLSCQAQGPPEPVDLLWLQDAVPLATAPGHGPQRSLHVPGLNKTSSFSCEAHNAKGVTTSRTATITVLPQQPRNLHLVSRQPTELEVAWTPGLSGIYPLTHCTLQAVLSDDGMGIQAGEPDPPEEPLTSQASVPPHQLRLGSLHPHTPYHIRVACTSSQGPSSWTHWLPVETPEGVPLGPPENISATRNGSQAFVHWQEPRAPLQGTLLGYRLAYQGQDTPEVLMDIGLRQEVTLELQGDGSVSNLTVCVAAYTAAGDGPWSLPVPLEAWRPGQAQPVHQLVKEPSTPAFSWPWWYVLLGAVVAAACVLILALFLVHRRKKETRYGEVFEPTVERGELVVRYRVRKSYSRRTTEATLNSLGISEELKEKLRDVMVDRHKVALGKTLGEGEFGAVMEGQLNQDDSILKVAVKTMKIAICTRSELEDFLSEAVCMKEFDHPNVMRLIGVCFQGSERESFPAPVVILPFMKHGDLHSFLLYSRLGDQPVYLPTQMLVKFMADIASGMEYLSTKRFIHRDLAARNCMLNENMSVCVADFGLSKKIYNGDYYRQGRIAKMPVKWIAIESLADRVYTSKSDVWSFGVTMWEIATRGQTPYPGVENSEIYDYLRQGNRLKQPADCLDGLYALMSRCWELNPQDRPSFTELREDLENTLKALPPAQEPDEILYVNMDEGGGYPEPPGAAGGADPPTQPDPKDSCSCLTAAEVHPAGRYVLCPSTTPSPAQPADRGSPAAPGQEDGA
Nature of the test: AXL autophosphorylation ELISA in A-172 cells. Type of test: cell-based. The conditions noted are these: cellular activity, Gas6-stimulated, phospho-AXL ELISA. As for the experimental part: A-172 glioblastoma cells (ATCC #CRL-1620) were seeded at 2.5×10^5 cells/well onto 24-well plates (Greiner #662165), in DMEM (Thermo Fisher #11995-040) containing 10% FBS (Thermo Fisher #26140-079), 1% MEM NEAA (Thermo Fisher #11140-050), 1% GlutaMax (Thermo Fisher #35050-061) and 1% Penicillin Streptomycin (Thermo Fisher #15140-122). A-172 cells were incubated at 37° C., 5% CO2 for 24 h and then starved for 24 h in serum-free medium. Test compounds were serially diluted to produce an 8-point dose curve in fresh serum-free medium to a final concentration of 0.3% DMSO (vehicle) and added to the cells and incubated for 1 h. Cells were then stimulated with 1 μg/mL recombinant human Gas6 (R&D Systems #885-GSB-500) for 15 min, washed with cold PBS and immediately lysed with 150 μL of cold 1× lysis buffer [20 mM Tris, 137 mM sodium chloride, 2 mM EDTA, 10% glycerol, 1% NP-40 alternative, 1 mM activated sodium orthovanadate, 1 mM PefaBloc SC (Sigma-Aldrich #11429868001), protease/phosphatase inhibitor tablet (Thermo Fisher #A32959)]. Lysates were collected and 100 μL/well added into the human phospho-AXL DuoSet IC ELISA (R&D Systems #DYC2228-2). Assay was performed according to manufacturer's instructions and sample phospho-AXL concentrations were extrapolated using human phospho-AXL control (R&D Systems #841645) as a standard. Positive control wells (100% activity) contained Gas6-stimulated, DMSO-treated cell lysates. Negative control wells (0% activity) contained Gas6-stimulated, reference inhibitor-treated cell lysates. IC50 values were calculated by nonlinear regression analysis using a 4-parameter logistic curve fit in ActivityBase XE (IDBS).
(ELISA stands for enzyme-linked immunosorbent assay.)
For the compound `CN1CCN(c2cc(-c3ccc4c(Oc5ccc(NC(=O)C6(C(=O)Nc7ccc(F)cc7)CC6)cc5)ccnc4c3)ccn2)CC1` [Compound 111, 1-N′-(4-Fluorophenyl)-1-N-[4-[7-[2-(4-methylpiperazin-1-yl)pyridin-4-yl]quinolin-4-yl]oxyphenyl]cyclopropane-1,1-dicarboxamide], the IC50 lay in the range of 0.01 to 0.1 µM.

The compound `CC(C)Oc1ccc(-c2ccc3c(Oc4ccc(NC(=O)C5(C(=O)Nc6ccc(F)cc6)CC5)cc4)ccnc3c2)cn1` [Compound 50, 1-N′-(4-Fluorophenyl)-1-N-[4-[7-(6-propan-2-yloxypyridin-3-yl)quinolin-4-yl]oxyphenyl]cyclopropane-1,1-dicarboxamide] gave an IC50 of 0.1 to 0.3 µM.

In the case of `O=C(Nc1ccc(F)cc1)C1(C(=O)Nc2ccc(Oc3ccnc4cc(-c5cnc6[nH]ncc6c5)ccc34)cc2)CC1` [Compound 39, 1-N′-(4-Fluorophenyl)-1-N-[4-[7-(1H-pyrazolo[3,4-b]pyridin-5-yl)quinolin-4-yl]oxyphenyl]cyclopropane-1,1-dicarboxamide], the half-inhibitory concentration (IC50) was in the range of 0.01 to 0.1 µM.

`N#Cc1cc(-c2ccc3c(Oc4ccc(NC(=O)C5(C(=O)Nc6ccc(F)cc6)CC5)cc4)ccnc3c2)ccn1` [Compound 34, 1-N-[4-[7-(2-Cyanopyridin-4-yl)quinolin-4-yl]oxyphenyl]-1-N′-(4-fluorophenyl)cyclopropane-1,1-dicarboxamide] showed an IC50 of 0.01 to 0.1 µM.

With `Cc1cc2c(Oc3ccc(NC(=O)C4(C(=O)Nc5ccc(F)cc5)CC4)cc3)ccnc2cc1-c1ncc[nH]1` [Compound 120, 1-N′-(4-Fluorophenyl)-1-N-[4-[7-(1H-imidazol-2-yl)-6-methylquinolin-4-yl]oxyphenyl]cyclopropane-1,1-dicarboxamide], the IC50 fell in the range of 0.01 to 0.1 µM.

On to `O=C(Nc1ccc(F)cc1)C1(C(=O)Nc2cc(F)c(Oc3ccnc4cc(-c5cnn(C(F)F)c5)ccc34)cc2F)CC1` [Compound 118, 1-N′-[4-[7-[1-(Difluoromethyl)pyrazol-4-yl]quinolin-4-yl]oxy-2,5-difluorophenyl]-1-N-(4-fluorophenyl)cyclopropane-1,1-dicarboxamide], for which the IC50 was at most 0.01 µM.

`CC(C)n1cc(-c2ccc3c(Oc4ccc(NC(=O)C5(C(=O)Nc6ccc(F)cc6)CC5)cc4)ccnc3c2)cn1` [Compound 21, 1-N′-(4-Fluorophenyl)-1-N-[4-[7-(1-propan-2-ylpyrazol-4-yl)quinolin-4-yl]oxyphenyl]cyclopropane-1,1-dicarboxamide] gave an IC50 of at most 0.01 µM.

Compound `O=C(Nc1ccc(F)cc1)C1(C(=O)Nc2ccc(Oc3ccnc4cc(-c5cccnc5O)ccc34)cc2)CC1` [Compound 52, 1-N′-(4-Fluorophenyl)-1-N-[4-[7-(2-hydroxypyridin-3-yl)quinolin-4-yl]oxyphenyl]cyclopropane-1,1-dicarboxamide] showed an IC50 of 0.1 to 0.3 µM.

For the compound `O=C(Nc1ccc(F)cc1)C1(C(=O)Nc2ccc(Oc3ccnc4cc(-c5cccnc5)ccc34)c(F)c2)CC1` [Compound 113, 1-N-(4-Fluorophenyl)-1-N′-[3-fluoro-4-(7-pyridin-3-ylquinolin-4-yl)oxyphenyl]cyclopropane-1,1-dicarboxamide], the IC50 lay in the range of 0.01 to 0.1 µM.

`O=C(Nc1ccc(F)cc1)C1(C(=O)Nc2ccc(Oc3ccnc4cc(-c5cncs5)ccc34)cc2)CC1` [Compound 116, 1-N′-(4-Fluorophenyl)-1-N-[4-[7-(1,3-thiazol-5-yl)quinolin-4-yl]oxyphenyl]cyclopropane-1,1-dicarboxamide] yielded an IC50 of 0.01 to 0.1 µM.

`Cc1cc2c(Oc3cc(F)c(NC(=O)C4(C(=O)Nc5ccc(F)cc5)CC4)cc3F)ccnc2cc1-c1ncc[nH]1` [Compound 121, 1-N′-[2,5-Difluoro-4-[7-(1H-imidazol-2-yl)-6-methylquinolin-4-yl]oxyphenyl]-1-N-(4-fluorophenyl)cyclopropane-1,1-dicarboxamide] displayed an IC50 of at most 0.01 µM.

Turning to `Cc1cc2c(Oc3ccc(NC(=O)C4(C(=O)Nc5ccc(F)cc5)CC4)cc3F)ccnc2cc1-c1ncc[nH]1` [Compound 122, 1-N′-[3-Fluoro-4-[7-(1H-imidazol-2-yl)-6-methylquinolin-4-yl]oxyphenyl]-1-N-(4-fluorophenyl)cyclopropane-1,1-dicarboxamide], the IC50 was 0.01 to 0.1 µM.

`O=C(Nc1ccc(F)cc1)C1(C(=O)Nc2ccc(Oc3ccnc4cc(-c5ccc(F)nc5)ccc34)cc2)CC1` [Compound 41, 1-N′-(4-Fluorophenyl)-1-N-[4-[7-(6-fluoropyridin-3-yl)quinolin-4-yl]oxyphenyl]cyclopropane-1,1-dicarboxamide]: the IC50 lay in the range of 0.01 to 0.1 µM.

Consider `Cn1ccc(-c2ccc3c(Oc4ccc(NC(=O)C5(C(=O)Nc6ccc(F)cc6)CC5)cc4)ccnc3c2)cc1=O` [Compound 117, 1-N′-(4-Fluorophenyl)-1-N-[4-[7-(1-methyl-2-oxopyridin-4-yl)quinolin-4-yl]oxyphenyl]cyclopropane-1,1-dicarboxamide], for which the IC50 was at most 0.01 µM.

Take `Cc1cc(-c2ccc3c(Oc4ccc(NC(=O)C5(C(=O)Nc6ccc(F)cc6)CC5)cc4)ccnc3c2)ccn1` [Compound 30, 1-N′-(4-Fluorophenyl)-1-N-[4-[7-(2-methylpyridin-4-yl)quinolin-4-yl]oxyphenyl]cyclopropane-1,1-dicarboxamide]: the IC50 was in the range of 0.01 to 0.1 µM.

Compound `N#Cc1cncc(-c2ccc3c(Oc4ccc(NC(=O)C5(C(=O)Nc6ccc(F)cc6)CC5)cc4)ccnc3c2)c1` [Compound 40, 1-N-[4-[7-(5-Cyanopyridin-3-yl)quinolin-4-yl]oxyphenyl]-1-N′-(4-fluorophenyl)cyclopropane-1,1-dicarboxamide] yielded an IC50 of 0.01 to 0.1 µM.

As for `O=C(Nc1ccc(F)cc1)C1(C(=O)Nc2ccc(Oc3ccnc4cc(-c5ccc(O)nc5)ccc34)cc2)CC1` [Compound 51, 1-N′-(4-Fluorophenyl)-1-N-[4-[7-(6-hydroxypyridin-3-yl)quinolin-4-yl]oxyphenyl]cyclopropane-1,1-dicarboxamide], the IC50 is at most 0.01 µM.

In the case of `O=C(Nc1ccc(F)cc1)C1(C(=O)Nc2ccc(Oc3ccnc4cc(-c5cnn6c5CCC6)ccc34)cc2)CC1` [Compound 29, 1-N-[4-[7-(5,6-Dihydro-4H-pyrrolo[1,2-b]pyrazol-3-yl)quinolin-4-yl]oxyphenyl]-1-N′-(4-fluorophenyl)cyclopropane-1,1-dicarboxamide], the IC50 lay in the range of 0.01 to 0.1 µM.

With `O=C(Nc1ccc(F)cc1)C1(C(=O)Nc2ccc(Oc3ccnc4cc(-c5cnn(C(F)F)c5)ccc34)c(F)c2)CC1` [Compound 123, 1-N′-[4-[7-[1-(Difluoromethyl)pyrazol-4-yl]quinolin-4-yl]oxy-3-fluorophenyl]-1-N-(4-fluorophenyl)cyclopropane-1,1-dicarboxamide], the IC50 is at most 0.01 µM.

Regarding `O=C(Nc1ccc(F)cc1)C1(C(=O)Nc2ccc(Oc3ccnc4cc(-c5ccc[n+]([O-])c5)ccc34)cc2)CC1` [Compound 109, 1-N′-(4-Fluorophenyl)-1-N-[4-[7-(1-oxidopyridin-1-ium-3-yl)quinolin-4-yl]oxyphenyl]cyclopropane-1,1-dicarboxamide], the IC50 is at most 0.01 µM.

As for `O=C(Nc1ccc(F)cc1)C1(C(=O)Nc2cc(F)c(Oc3ccnc4cc(-c5cccnc5)ccc34)cc2F)CC1` [Compound 115, 1-N′-[2,5-Difluoro-4-(7-pyridin-3-ylquinolin-4-yl)oxyphenyl]-1-N-(4-fluorophenyl)cyclopropane-1,1-dicarboxamide], the IC50 is at most 0.01 µM.

`Cn1cc(-c2ccc3c(Oc4ccc(NC(=O)C5(C(=O)Nc6ccc(F)cc6)CC5)cc4)ccnc3c2)ccc1=O` [Compound 119, 1-N′-(4-Fluorophenyl)-1-N-[4-[7-(1-methyl-6-oxopyridin-3-yl)quinolin-4-yl]oxyphenyl]cyclopropane-1,1-dicarboxamide] yielded an IC50 of at most 0.01 µM.
